Where “and” joins values, the source holds several entries; their conditions need not be identical. Identical values can stand only once.
Columns and labels:
PIK3C2B = PIK3C2B (Homo sapiens, UniProt O00750); assay: biochemical; conditions: read-out: %Ctrl @ 2000nM
[1] = target: ABL1(E255K)-phosphorylated (Homo sapiens, UniProt P00519, E255K); assay: biochemical; conditions: read-out: %Ctrl @ 2000nM
PRKR = PRKR (Homo sapiens, UniProt P19525); assay: biochemical; conditions: read-out: %Ctrl @ 2000nM
LATS2 = LATS2 (Homo sapiens, UniProt Q9NRM7); assay: biochemical; conditions: read-out: %Ctrl @ 2000nM
WEE1 = WEE1 (Homo sapiens, UniProt P30291); assay: biochemical; conditions: read-out: %Ctrl @ 2000nM
CDK9 = CDK9 (Homo sapiens, UniProt P50750); assay: biochemical; conditions: read-out: %Ctrl @ 2000nM
ROS1 = ROS1 (Homo sapiens, UniProt P08922); assay: biochemical; conditions: read-out: %Ctrl @ 2000nM
TAOK2 = TAOK2 (Homo sapiens, UniProt Q9UL54); assay: biochemical; conditions: read-out: %Ctrl @ 2000nM
IRAK4 = IRAK4 (Homo sapiens, UniProt Q9NWZ3); assay: biochemical; conditions: read-out: %Ctrl @ 2000nM
PRKG2 = PRKG2 (Homo sapiens, UniProt Q13237); assay: biochemical; conditions: read-out: %Ctrl @ 2000nM
SRPK3 = SRPK3 (Homo sapiens, UniProt Q9UPE1); assay: biochemical; conditions: read-out: %Ctrl @ 2000nM
MLK3 = MLK3 (Homo sapiens, UniProt Q16584); assay: biochemical; conditions: read-out: %Ctrl @ 2000nM
DAPK2 = DAPK2 (Homo sapiens, UniProt Q9UIK4); assay: biochemical; conditions: read-out: %Ctrl @ 2000nM
LYN = LYN (Homo sapiens, UniProt P07948); assay: biochemical; conditions: read-out: %Ctrl @ 2000nM
FLT1 = FLT1 (Homo sapiens, UniProt P17948); assay: biochemical; conditions: read-out: %Ctrl @ 2000nM
EGFR(L858R,T790M) = EGFR(L858R,T790M) (Homo sapiens, UniProt P00533, L858R/T790M); assay: biochemical; conditions: read-out: %Ctrl @ 2000nM
DAPK1 = DAPK1 (Homo sapiens, UniProt P53355); assay: biochemical; conditions: read-out: %Ctrl @ 2000nM
CLK1 = CLK1 (Homo sapiens, UniProt P49759); assay: biochemical; conditions: read-out: %Ctrl @ 2000nM
PLK2 = PLK2 (Homo sapiens, UniProt Q9NYY3); assay: biochemical; conditions: read-out: %Ctrl @ 2000nM
ICK = ICK (Homo sapiens, UniProt Q9UPZ9); assay: biochemical; conditions: read-out: %Ctrl @ 2000nM
ERBB3 = ERBB3 (Homo sapiens, UniProt P21860); assay: biochemical; conditions: read-out: %Ctrl @ 2000nM
[2] = target: RSK1(Kin.Dom.2-C-terminal) (Homo sapiens, UniProt Q15418); assay: biochemical; conditions: read-out: %Ctrl @ 2000nM
caspase-3 in 786-O cells = conditions: 72 h, compounds at 20 μM
ALK = ALK (Homo sapiens, UniProt Q9UM73); assay: biochemical; conditions: read-out: %Ctrl @ 2000nM
TRKB = TRKB (Homo sapiens, UniProt Q16620); assay: biochemical; conditions: read-out: %Ctrl @ 2000nM
DMPK2 = DMPK2 (Homo sapiens, UniProt Q6DT37); assay: biochemical; conditions: read-out: %Ctrl @ 2000nM
BRSK1 = BRSK1 (Homo sapiens, UniProt Q8TDC3); assay: biochemical; conditions: read-out: %Ctrl @ 2000nM
TRPM6 = TRPM6 (Homo sapiens, UniProt Q9BX84); assay: biochemical; conditions: read-out: %Ctrl @ 2000nM
CSNK1G1 = CSNK1G1 (Homo sapiens, UniProt Q9HCP0); assay: biochemical; conditions: read-out: %Ctrl @ 2000nM
ULK3 = ULK3 (Homo sapiens, UniProt Q6PHR2); assay: biochemical; conditions: read-out: %Ctrl @ 2000nM
TGFBR2 = TGFBR2 (Homo sapiens, UniProt P37173); assay: biochemical; conditions: read-out: %Ctrl @ 2000nM
[3] = tested on: 786-O, A549, MDA-MB-231, OVCAR-3, U373 MG
PKAC-beta = PKAC-beta (Homo sapiens, UniProt P22694); assay: biochemical; conditions: read-out: %Ctrl @ 2000nM
PFPK5(P.falciparum) = PFPK5(P.falciparum) (Plasmodium falciparum, UniProt P61075); assay: biochemical; conditions: read-out: %Ctrl @ 2000nM
MTOR = MTOR (Homo sapiens, UniProt P42345); assay: biochemical; conditions: read-out: %Ctrl @ 2000nM
WEE2 = WEE2 (Homo sapiens, UniProt P0C1S8); assay: biochemical; conditions: read-out: %Ctrl @ 2000nM
CTK = CTK (Homo sapiens, UniProt P42679); assay: biochemical; conditions: read-out: %Ctrl @ 2000nM
AURKB = AURKB (Homo sapiens, UniProt Q96GD4); assay: biochemical; conditions: read-out: %Ctrl @ 2000nM
TNIK = TNIK (Homo sapiens, UniProt Q9UKE5); assay: biochemical; conditions: read-out: %Ctrl @ 2000nM
[4] = target: ABL1(F317L)-nonphosphorylated (Homo sapiens, UniProt P00519, F317L); assay: biochemical; conditions: read-out: %Ctrl @ 2000nM
[5] = tested on: AKT (S129) in 786-O cells
p38 MAPK (T180/Y182) = conditions: HEK293 cells; 48 h
PIK3C2G = PIK3C2G (Homo sapiens, UniProt O75747); assay: biochemical; conditions: read-out: %Ctrl @ 2000nM

Chain of TGFBR2 (P37173 23-567): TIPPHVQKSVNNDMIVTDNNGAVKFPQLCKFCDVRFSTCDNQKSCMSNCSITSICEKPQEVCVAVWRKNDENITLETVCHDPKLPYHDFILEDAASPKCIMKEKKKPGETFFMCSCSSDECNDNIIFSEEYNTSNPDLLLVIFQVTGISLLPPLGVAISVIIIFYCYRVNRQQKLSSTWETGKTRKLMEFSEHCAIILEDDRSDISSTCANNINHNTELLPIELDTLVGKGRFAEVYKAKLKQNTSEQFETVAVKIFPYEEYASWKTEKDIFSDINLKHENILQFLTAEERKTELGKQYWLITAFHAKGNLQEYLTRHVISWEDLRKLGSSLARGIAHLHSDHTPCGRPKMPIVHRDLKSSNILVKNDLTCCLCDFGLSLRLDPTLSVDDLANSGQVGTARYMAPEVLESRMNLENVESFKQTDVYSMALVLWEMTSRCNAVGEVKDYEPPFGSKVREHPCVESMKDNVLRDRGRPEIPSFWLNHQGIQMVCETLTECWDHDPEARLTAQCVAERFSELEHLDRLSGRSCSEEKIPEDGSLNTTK
Chain of SRPK3 (Q9UPE1 whole entry): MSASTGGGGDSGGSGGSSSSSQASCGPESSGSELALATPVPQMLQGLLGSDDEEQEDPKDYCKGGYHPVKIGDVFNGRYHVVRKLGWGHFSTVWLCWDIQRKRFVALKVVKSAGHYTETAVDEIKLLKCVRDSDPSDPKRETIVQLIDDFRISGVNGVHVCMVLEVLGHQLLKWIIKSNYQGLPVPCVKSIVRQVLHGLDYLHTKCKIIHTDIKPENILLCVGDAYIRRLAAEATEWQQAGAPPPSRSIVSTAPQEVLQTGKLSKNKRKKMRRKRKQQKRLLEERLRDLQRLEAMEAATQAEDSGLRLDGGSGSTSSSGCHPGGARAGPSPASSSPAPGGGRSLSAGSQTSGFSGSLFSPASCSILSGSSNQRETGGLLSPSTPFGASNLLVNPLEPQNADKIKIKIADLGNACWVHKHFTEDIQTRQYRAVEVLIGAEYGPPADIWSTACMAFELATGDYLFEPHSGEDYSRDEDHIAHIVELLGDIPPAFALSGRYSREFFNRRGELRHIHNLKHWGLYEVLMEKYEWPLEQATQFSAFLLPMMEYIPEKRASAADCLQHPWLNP
Chain of LYN (P07948 whole entry): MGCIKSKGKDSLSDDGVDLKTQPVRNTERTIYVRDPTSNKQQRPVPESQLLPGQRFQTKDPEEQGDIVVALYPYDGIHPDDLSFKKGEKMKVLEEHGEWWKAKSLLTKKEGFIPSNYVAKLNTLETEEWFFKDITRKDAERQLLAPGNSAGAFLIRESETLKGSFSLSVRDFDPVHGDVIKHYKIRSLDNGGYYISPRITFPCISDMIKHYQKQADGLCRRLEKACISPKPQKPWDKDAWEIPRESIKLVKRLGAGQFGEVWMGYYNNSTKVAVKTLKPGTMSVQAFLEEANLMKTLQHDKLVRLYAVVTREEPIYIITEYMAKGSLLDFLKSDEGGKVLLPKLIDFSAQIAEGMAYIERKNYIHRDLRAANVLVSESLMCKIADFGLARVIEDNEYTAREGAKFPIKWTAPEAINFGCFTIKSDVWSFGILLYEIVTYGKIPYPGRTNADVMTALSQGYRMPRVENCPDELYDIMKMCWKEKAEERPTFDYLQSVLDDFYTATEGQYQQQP
Chain of DAPK2 (Q9UIK4 whole entry): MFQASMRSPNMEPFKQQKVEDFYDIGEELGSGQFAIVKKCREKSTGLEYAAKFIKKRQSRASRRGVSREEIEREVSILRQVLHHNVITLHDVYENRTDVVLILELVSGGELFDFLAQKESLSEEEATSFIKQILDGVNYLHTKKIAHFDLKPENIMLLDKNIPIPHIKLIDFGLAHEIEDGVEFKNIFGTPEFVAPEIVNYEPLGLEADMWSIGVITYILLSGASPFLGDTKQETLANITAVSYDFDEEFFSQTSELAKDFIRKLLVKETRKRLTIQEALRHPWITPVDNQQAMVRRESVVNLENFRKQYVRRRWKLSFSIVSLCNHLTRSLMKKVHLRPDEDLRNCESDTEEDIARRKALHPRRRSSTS
Chain of ABL1(F317L)-nonphosphorylated (P00519 whole entry F317L): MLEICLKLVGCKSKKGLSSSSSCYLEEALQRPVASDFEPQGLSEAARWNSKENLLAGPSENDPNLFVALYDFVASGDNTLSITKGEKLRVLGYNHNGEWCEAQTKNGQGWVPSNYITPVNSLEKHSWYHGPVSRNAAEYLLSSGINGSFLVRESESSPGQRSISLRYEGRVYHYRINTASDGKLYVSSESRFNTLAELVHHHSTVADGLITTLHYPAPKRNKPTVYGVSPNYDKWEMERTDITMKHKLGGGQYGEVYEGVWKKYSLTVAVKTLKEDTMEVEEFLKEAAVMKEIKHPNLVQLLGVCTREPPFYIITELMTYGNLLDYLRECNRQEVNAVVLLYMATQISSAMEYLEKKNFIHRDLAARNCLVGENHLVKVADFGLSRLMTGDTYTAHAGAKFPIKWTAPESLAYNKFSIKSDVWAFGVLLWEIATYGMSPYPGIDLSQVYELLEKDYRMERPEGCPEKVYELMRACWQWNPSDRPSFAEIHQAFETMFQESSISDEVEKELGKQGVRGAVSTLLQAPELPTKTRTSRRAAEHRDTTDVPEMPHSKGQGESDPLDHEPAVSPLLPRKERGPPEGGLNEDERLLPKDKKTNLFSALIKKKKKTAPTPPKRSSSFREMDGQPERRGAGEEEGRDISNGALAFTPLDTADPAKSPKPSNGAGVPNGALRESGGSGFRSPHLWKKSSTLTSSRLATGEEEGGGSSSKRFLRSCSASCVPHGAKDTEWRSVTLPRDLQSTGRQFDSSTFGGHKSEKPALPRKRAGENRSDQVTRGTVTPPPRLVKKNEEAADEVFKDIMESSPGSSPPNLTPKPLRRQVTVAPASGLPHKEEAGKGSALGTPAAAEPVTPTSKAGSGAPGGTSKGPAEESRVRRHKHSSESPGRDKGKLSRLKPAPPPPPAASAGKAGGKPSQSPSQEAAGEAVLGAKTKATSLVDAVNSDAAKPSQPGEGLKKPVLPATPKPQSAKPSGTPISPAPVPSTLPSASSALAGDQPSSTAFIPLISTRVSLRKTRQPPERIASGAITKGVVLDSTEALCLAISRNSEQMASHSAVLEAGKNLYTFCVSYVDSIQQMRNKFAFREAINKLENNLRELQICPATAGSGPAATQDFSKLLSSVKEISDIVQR
Chain of TAOK2 (Q9UL54 whole entry): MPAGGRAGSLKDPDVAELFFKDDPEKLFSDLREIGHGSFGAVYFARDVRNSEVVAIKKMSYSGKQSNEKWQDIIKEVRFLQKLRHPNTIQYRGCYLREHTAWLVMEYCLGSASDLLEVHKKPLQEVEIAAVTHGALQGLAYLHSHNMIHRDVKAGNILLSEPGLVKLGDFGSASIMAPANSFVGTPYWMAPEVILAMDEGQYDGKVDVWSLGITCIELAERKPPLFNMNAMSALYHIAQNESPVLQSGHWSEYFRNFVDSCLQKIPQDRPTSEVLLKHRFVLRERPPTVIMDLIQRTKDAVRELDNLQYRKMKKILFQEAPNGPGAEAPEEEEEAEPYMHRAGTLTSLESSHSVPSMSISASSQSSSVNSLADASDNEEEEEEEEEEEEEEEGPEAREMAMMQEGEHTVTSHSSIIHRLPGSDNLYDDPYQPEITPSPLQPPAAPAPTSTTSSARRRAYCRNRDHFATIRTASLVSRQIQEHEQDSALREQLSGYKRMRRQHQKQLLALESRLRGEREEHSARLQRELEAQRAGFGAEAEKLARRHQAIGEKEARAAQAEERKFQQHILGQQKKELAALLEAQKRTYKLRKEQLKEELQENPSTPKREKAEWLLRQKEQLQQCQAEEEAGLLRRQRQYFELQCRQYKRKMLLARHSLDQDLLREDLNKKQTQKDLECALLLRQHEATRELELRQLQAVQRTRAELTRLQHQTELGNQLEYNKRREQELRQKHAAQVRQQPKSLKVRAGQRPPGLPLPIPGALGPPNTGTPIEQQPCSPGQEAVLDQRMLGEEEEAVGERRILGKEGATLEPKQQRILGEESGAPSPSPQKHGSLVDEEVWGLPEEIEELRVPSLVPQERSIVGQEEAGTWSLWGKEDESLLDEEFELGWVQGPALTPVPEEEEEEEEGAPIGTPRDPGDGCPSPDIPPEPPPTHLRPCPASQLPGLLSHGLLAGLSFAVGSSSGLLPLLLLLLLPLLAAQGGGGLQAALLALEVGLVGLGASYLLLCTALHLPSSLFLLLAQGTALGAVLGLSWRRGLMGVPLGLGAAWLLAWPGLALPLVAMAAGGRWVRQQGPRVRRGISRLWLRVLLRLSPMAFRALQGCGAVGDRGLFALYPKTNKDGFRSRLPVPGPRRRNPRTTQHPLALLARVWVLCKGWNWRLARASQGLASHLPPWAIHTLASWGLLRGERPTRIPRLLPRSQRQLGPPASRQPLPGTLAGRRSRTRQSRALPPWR
Chain of ULK3 (Q6PHR2 whole entry): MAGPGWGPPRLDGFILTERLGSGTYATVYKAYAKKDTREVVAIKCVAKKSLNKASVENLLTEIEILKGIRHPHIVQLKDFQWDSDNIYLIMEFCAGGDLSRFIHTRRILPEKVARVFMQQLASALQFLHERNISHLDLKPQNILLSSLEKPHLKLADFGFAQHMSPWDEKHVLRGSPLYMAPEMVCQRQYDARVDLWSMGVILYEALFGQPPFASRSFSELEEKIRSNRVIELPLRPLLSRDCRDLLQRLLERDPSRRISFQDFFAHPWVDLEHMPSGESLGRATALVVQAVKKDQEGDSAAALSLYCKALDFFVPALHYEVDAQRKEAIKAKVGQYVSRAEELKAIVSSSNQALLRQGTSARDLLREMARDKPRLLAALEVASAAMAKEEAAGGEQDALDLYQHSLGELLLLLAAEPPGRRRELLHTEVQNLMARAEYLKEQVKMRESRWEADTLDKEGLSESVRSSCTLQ
Chain of ABL1(E255K)-phosphorylated (P00519 whole entry E255K): as the sequence (P00519 whole entry F317L) above, with E255K, L317F counted along it

`CC(C)COC(=O)c1[nH]c2ccc(F)cc2c1-c1cn(CC2CCN(CCNS(=O)(=O)c3ccc(CC(C)C)cc3)CC2)nn1` [AB668, isobutyl 5-fluoro-3-(1-((1-(2-((4-isobutylphenyl)sulfonamido)ethyl)piperidin-4-yl)methyl)-1H-1,2,3-triazol-4-yl)-1H-indole-2-carboxylate] was tested, and the remaining activity at 2 µM (PIK3C2B) was 100%, the remaining activity at 2 µM [1] was 67% and the remaining activity at 2 µM (PRKR) was 75%. The remaining activity at 2 µM (LATS2) was 89%, the remaining activity at 2 µM (WEE1) was 96% and the remaining activity at 2 µM (CDK9) was 93%. The remaining activity at 2 µM (ROS1) was 89%, the remaining activity at 2 µM (TAOK2) was 100% and the remaining activity at 2 µM (IRAK4) was 92%. For the same compound, the remaining activity at 2 µM (PRKG2) was 97%, the remaining activity at 2 µM (SRPK3) was 100% and the remaining activity at 2 µM (MLK3) was 99%. For the same compound, the remaining activity at 2 µM (DAPK2) was 71%, the remaining activity at 2 µM (LYN) was 88% and the remaining activity at 2 µM (FLT1) was 85%. It also gave a remaining activity at 2 µM (EGFR(L858R,T790M)) of 83%, a remaining activity at 2 µM (DAPK1) of 100% and a remaining activity at 2 µM (CLK1) of 67%. The remaining activity at 2 µM (PLK2) was 87%, the remaining activity at 2 µM (ICK) was 100% and the remaining activity at 2 µM (ERBB3) was 94%. For the same compound, the remaining activity at 2 µM [2] was 100%, the caspase-3 activation (caspase-3 in 786-O cells) was “induced caspase-3 activation” and the remaining activity at 2 µM (ALK) was 91%. It also gave a remaining activity at 2 µM (TRKB) of 87%, a remaining activity at 2 µM (DMPK2) of 85% and a remaining activity at 2 µM (BRSK1) of 78%. For the same compound, the remaining activity at 2 µM (TRPM6) was 81%, the remaining activity at 2 µM (CSNK1G1) was 90% and the remaining activity at 2 µM (ULK3) was 82%. The remaining activity at 2 µM (TGFBR2) was 90%, the “cell death in various cancer cells” value [3] was “broad effect on cell death” and the remaining activity at 2 µM (PKAC-beta) was 78%. For the same compound, the remaining activity at 2 µM (PFPK5(P.falciparum)) was 100%, the remaining activity at 2 µM (MTOR) was 92% and the remaining activity at 2 µM (WEE2) was 95%. For the same compound, the remaining activity at 2 µM (CTK) was 82%, the remaining activity at 2 µM (AURKB) was 99% and the remaining activity at 2 µM (TNIK) was 88%. The remaining activity at 2 µM [4] was 88%, the “pAKTS129 / AKT band quantification” value [5] was 0.8 and 0.5 and the p38 activation (p38 MAPK (T180/Y182)) was “activated in both cell types”. The remaining activity at 2 µM (PIK3C2G) was 100%.
